Marks after values point to notes of the source that are not given here.
Assays:
[1] = system: MC-38 tumor cells; test: In vivo anti-tumor efficacy and combination efficacy with anti-PD1, bilateral MC-38 tumors; set-up: species or system C57BL/6 mice; conditions: Axitinib 25 mg/kg oral twice daily, antibodies 10 mg/kg IP; for Absolute tumor volume of left flank tumors, mean: left (not injected) tumor, hydrogels 50 μL IT into right tumor once Day 0 (7a 378, 8a 136, 8b 47 μg eq. axitinib); for Absolute tumor volume of right flank tumors, mean: right (IT-treated) tumor, hydrogels 50 μL IT once Day 0 (7a 378, 8a 136, 8b 47 μg eq. axitinib)
Experimental: The study was conducted in female C57BL/6 mice with an age of 6-8 weeks at the day of tumor inoculation. Mice were implanted with 1×10^6 MC-38 tumor cells into the left and right flanks. When right flank tumors were grown to a mean tumor volume of ˜104 mm^3, mice were randomized into treatment cohorts. For animals that received intratumoral injections, the right tumor was selected for treatment.
(§1) Following treatment initiation, anti-tumor efficacy was assessed by determination of tumor volumes at various time points from tumor size measurements with a caliper. Tumor volumes were calculated according to the formula: […]
(§2) where L is the length of the tumor and W the width (both in mm).

[2] = system: MC-38/C11G tumor cells; test: Anti-tumor efficacy within the in vivo PK study; set-up: species or system C57BL/6 mice; conditions: Axitinib 3 mg/kg oral twice a day for 14 days, 9c single IT 50 μL
Experimental: (§3) The study was conducted in female C57BL/6 mice with an age of 6-8 weeks at the day of tumor inoculation. Mice were implanted with 1×10^6 of MC-38/C11G tumor cells into the right flank.
(§4) When tumors were grown to a mean tumor volume of ˜94 mm^3, mice were randomized into treatment cohorts (day 0). Following randomization, animals received either a single intratumoral injection of hydrogel 1 or hydrogel 9c as a single intratumoral dose in an injection volume of 50 μL, or with orally administered Axitinib suspended in 0.5% carboxymethylcellulose at 3 mg/kg in a 100 μl dose volume twice a day for 14 days. Hydrogels were administered as suspensions in pH 5.5 20 mM sodium succinate, 77 g/l trehalose dihydrate, 0.2% Pluronic F-68 buffer.
as §1, §2

[3] = Axitinib concentration in plasma samples; type: in vivo, C57BL/6 mice; conditions: female, C57BL/6, mouse, 9c single IT 50 μL (n=4), Axitinib 3 mg/kg oral (n=3), LLOQ 50.0 pg/mL
Experimental: as §3, §4
After 0.5, 1, 4 12, and 24 hours following treatment, 4 mice from the hydrogel 9c and Axitinib treated groups were sacrificed and terminal blood was collected in EDTA. Plasma was prepared after blood withdrawal. After 72 hours following treatment, 4 mice from the hydrogel 9c treated group were sacrificed and tumors were excised and snap frozen. Plasma samples underwent further processing by solid-phase extraction prior to Axitinib concentration determination by LCMS/MS.
All solvents (UPLC grade) as well as formic acid (ULC/MS quality) were purchased from Biosolve BV, Valkenswaard, The Netherlands. Axitinib concentrations in plasma were determined after solid phase extraction via liquid chromatography separation and detection by mass spectrometry (LCMS). As internal standard [^13C, D3]-axitinib was used. LCMS analysis was carried out by using an Agilent Infinity ultra high performance liquid chromatography (UHPLC) system coupled to an AbSciex 6500+ QTrap triple quadrupole mass spectrometer (QQQ) via an ESI probe. Chromatography was performed on a C18 analytical UHPLC column (YMC-Triart, 2.1×50 mm, 1.9 μm particle). Water containing 0.1% formic acid (v/v) was used as mobile phase A and acetonitrile with 0.1% formic acid as mobile phase B. The gradient system comprised a linear increase from 15% B to 30% B in 2.7 min. […]

CNC(=O)c1ccccc1Sc1ccc2c(/C=C/c3ccccn3)n[nH]c2c1 [Axitinib, axitinib]
Absolute tumor volume of left flank tumors, mean ([1]; day 0 post-treatment): 112.18 mm^3 | Absolute tumor volume of right flank tumors, mean ([1]; day 0 post-treatment): 104.22 mm^3 | Absolute tumor volume of left flank tumors, mean ([1]; day 3 post-treatment): 321.44 mm^3 | Absolute tumor volume of right flank tumors, mean ([1]; day 3 post-treatment): 304.55 mm^3 | Absolute tumor volume of left flank tumors, mean ([1]; day 5 post-treatment): 432.85 mm^3 | Absolute tumor volume of right flank tumors, mean ([1]; day 5 post-treatment): 419.99 mm^3 | Absolute tumor volume of left flank tumors, mean ([1]; day 7 post-treatment): 601.11 mm^3 | Absolute tumor volume of right flank tumors, mean ([1]; day 7 post-treatment): 543.06 mm^3 | Absolute tumor volume of left flank tumors, mean ([1]; day 10 post-treatment): 741.81† mm^3 | Absolute tumor volume of right flank tumors, mean ([1]; day 10 post-treatment): 763.99 mm^3 | Absolute tumor volume of left flank tumors, mean ([1]; day 12 post-treatment): 967.56†, †† mm^3 | Absolute tumor volume of right flank tumors, mean ([1]; day 12 post-treatment): 994.16† mm^3 | Absolute tumor volume, mean ([2]; day 0 post-treatment): 93.862 mm^3 | Absolute tumor volume, mean ([2]; day 4 post-treatment): 243.647 mm^3 | Absolute tumor volume, mean ([2]; day 7 post-treatment): 418.787 mm^3 | Absolute tumor volume, mean ([2]; day 11 post-treatment): 710.390 mm^3 | Absolute tumor volume, mean ([2]; day 14 post-treatment): 977.619* mm^3 | concentration at 0.5 h ([3]; 0.5 h): 101 ng/mL | concentration at 1 h ([3]; 1 h): 76.8 ng/mL | concentration at 12 h ([3]; 12 h): 0.797 ng/mL

Source: patent publication US20230102309A1, “TYROSINE KINASE INHIBITOR CONJUGATES” (Ascendis Pharma Oncology Division A/S, priority 2019, published 2023)
